Results on 2 molecules are retold here after paper PMC5201275, “Structural and Catalytic Properties of S1 Nuclease from Aspergillus oryzae Responsible for Substrate Recognition, Cleavage, Non–Specificity, and Inhibition” (PLoS ONE, 2016).

For the assay, the target named is T1, S1 nuclease (S1wt; S1D65N) (Aspergillus oryzae, UniProt P24021).
T1 construct: gene nucS; Endo F1 deglycosylated for crystals; three Zn2+
T1 sequence (P24021 21-287): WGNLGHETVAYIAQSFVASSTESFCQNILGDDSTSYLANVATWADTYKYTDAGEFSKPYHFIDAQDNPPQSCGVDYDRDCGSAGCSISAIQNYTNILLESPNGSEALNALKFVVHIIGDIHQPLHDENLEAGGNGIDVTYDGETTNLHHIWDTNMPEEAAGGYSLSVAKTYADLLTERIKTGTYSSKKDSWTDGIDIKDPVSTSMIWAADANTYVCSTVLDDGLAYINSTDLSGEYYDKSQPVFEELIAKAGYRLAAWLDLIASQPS
The assay can be described thus: X-ray crystal structure. Type of assay: binding.

Molecules are shown by their SMILES.

Take `Nc1ccn([C@H]2C[C@H](O)[C@@H](CO)O2)c(=O)n1` [dCyt, 2'–deoxycytidine]: the X-ray crystal structure result (pH 4.2, NBS1, shallow mode, with phosphate in zinc cluster, co-crystallized with dC(pS)dC) is “The structure contains one phosphate ion and one molecule of dCyt in the active site”.

For the molecule `O=P(O)(O)O` [Pi, phosphate ion], for the setting “pH 5.5, zinc cluster, first binding mode, occupancy 0.5, not added (no co-crystallization), also in 5FBB (pH 6.5) and 5FBD (pH 4.2, second mode)”, the X-ray crystal structure entry is recorded as “A phosphate ion inside the zinc cluster in the first binding mode is modeled”.
